Source: patent publication US12398154B2, “Azaquinazoline pan-KRas inhibitors” (Mirati Therapeutics, Inc., priority 2020, dated 2025)

What was measured:
KRas G12C = KRas G12C (Homo sapiens, UniProt P01116, G12C); test: biochemical;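 further: binding to KRas assessed by TR-FRET displacement after one hour incubation at room temperature, potency fitted from percent-of-control values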
Procedure: (§1) The ability of a compound to bind to KRas was measured using a TR-FRET displacement assay. […] After a 60-minute incubation at room temperature, the reaction was measured using a BMG LABTECH CLARIO star Plus via TR-FRET. […] The POC values were fit to a 4-parameter IC50 equation and the IC50 value reported.

KRas G12R = KRas G12R (Homo sapiens, UniProt P01116, G12R); test: biochemical;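 further: TR-FRET displacement assay of compound binding to KRas, read after one hour at room temperature, potency from a four-parameter fit of percent-of-control values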
Procedure: as §1

KRas Q61H = biological target: T1, KRas Q61H (Homo sapiens, UniProt P01116, Q61H); test: KRas binding assay (TR-FRET displacement);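 further: TR-FRET signal read after one hour at room temperature, IC50 derived by four-parameter fitting of percent-of-control values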
T1 construct: Biotinylated KRas (corresponding to amino acids 1-169, produced at Accelegan Inc.); biotin (biotinylated); purchased Accelegan Inc
Procedure: as §1

KRas G12D = KRas G12D (Homo sapiens, UniProt P01116, G12D); test: biochemical;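 further: TR-FRET displacement binding assay on KRas, read after a one-hour incubation at room temperature, IC50 fitted from percent-of-control values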
Procedure: as §1

KRas G12A = KRas G12A (Homo sapiens, UniProt P01116, G12A); test: biochemical;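 further: binding to KRas measured by TR-FRET displacement after one hour at room temperature, IC50 from a four-parameter fit of percent-of-control values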
Procedure: as §1

KRas G12V = KRas G12V (Homo sapiens, UniProt P01116, G12V); test: biochemical;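 further: KRas binding measured by TR-FRET displacement at room temperature, IC50 fitted from percent of control values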
Procedure: as §1

KRas G13D = biological target: T2, KRas G13D (Homo sapiens, UniProt P01116, G13D); test: KRas binding assay (TR-FRET displacement);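 further: One-hour room temperature incubation before TR-FRET reading, IC50 from a four-parameter curve fit to percent-of-control data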
T2 construct: Biotinylated KRas (corresponding to amino acids 1-169, produced at Accelegan Inc.); biotin (biotinylated); purchased Accelegan Inc
Procedure: as §1

KRas G12S = KRas G12S (Homo sapiens, UniProt P01116, G12S); test: biochemical;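 further: TR-FRET displacement binding to KRas, read after one hour incubation at room temperature, IC50 from four-parameter fit of percent of control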
Procedure: as §1

KRas WT = KRas WT (Homo sapiens, UniProt P01116); test: biochemical;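 further: binding to KRas read as TR-FRET displacement after a one-hour room-temperature incubation, IC50 derived from percent-of-control values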
KRas WT, sequence (P01116 1-169 isoform P01116-2): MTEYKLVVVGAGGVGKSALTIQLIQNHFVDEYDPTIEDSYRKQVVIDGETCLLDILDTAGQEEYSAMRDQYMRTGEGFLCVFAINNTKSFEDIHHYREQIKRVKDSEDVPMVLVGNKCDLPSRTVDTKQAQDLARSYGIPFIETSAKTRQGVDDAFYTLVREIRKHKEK
Procedure: as §1

T1 sequence (P01116 1-169 isoform P01116-2 Q61H): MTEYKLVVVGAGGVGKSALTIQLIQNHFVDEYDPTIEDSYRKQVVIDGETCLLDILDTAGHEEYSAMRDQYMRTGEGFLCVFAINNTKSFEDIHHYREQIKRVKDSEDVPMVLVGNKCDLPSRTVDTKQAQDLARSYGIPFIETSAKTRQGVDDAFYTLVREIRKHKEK
KRas G12S, sequence (P01116 1-169 isoform P01116-2 G12S): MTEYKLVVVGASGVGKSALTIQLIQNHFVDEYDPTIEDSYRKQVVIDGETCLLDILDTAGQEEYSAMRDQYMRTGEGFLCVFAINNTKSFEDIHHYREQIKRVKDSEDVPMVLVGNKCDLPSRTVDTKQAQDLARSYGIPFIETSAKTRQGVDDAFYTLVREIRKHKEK
KRas G12A, sequence (P01116 1-169 isoform P01116-2 G12A): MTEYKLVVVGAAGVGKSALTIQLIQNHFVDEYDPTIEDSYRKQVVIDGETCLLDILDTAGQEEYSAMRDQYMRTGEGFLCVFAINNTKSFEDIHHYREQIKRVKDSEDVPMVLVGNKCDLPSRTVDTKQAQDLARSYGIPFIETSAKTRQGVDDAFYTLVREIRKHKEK
T2 sequence (P01116 1-169 isoform P01116-2 G13D): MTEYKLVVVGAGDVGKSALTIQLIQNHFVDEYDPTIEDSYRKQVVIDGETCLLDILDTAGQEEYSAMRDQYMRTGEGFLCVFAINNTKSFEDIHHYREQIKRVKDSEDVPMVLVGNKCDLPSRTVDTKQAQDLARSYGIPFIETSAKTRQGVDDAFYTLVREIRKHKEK
KRas G12R, sequence (P01116 1-169 isoform P01116-2 G12R): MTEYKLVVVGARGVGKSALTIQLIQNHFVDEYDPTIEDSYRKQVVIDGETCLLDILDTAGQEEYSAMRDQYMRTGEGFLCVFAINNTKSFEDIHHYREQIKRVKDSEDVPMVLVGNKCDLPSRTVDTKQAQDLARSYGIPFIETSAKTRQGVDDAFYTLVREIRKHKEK
KRas G12C, sequence (P01116 1-169 isoform P01116-2 G12C): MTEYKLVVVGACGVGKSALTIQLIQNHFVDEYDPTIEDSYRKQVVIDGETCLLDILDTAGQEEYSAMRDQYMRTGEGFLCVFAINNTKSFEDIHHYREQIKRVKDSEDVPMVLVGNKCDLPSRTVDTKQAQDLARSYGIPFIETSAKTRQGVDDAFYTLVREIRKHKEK
KRas G12D, sequence (P01116 1-169 isoform P01116-2 G12D): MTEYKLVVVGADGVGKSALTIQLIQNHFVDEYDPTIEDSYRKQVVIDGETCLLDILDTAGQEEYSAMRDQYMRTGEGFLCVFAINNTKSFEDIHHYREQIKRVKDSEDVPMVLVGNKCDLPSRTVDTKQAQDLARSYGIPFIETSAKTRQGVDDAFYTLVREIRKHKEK
KRas G12V, sequence (P01116 1-169 isoform P01116-2 G12V): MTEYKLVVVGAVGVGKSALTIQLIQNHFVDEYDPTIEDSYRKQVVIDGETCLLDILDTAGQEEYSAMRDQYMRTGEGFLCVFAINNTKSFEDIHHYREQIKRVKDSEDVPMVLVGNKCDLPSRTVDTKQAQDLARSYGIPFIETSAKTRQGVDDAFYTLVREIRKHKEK

| IC50 (KRas G12C) [µM] | IC50 (KRas G12R) [µM] | IC50 (KRas Q61H) [nM] | IC50 (KRas G12D) [µM] | IC50 (KRas G12A) [µM] | IC50 (KRas G12V) [µM] | IC50 (KRas G13D) [nM] | IC50 (KRas G12S) [µM] | IC50 (KRas WT) [µM] | SMILES |
| --- | --- | --- | --- | --- | --- | --- | --- | --- | --- |
| 11.7 | 4.02 | 9670 | 64.8 | 8.45 | 8.48 | 4830 | 7.11 | 6.28 | O=C1NC2(CCN(c3nc(OCC45CCCN4CCC5)nc4c(F)c(-c5cccc6cccc(F)c56)ncc34)CC2)CO1 [Example 224, 8-(8-fluoro-7-(8-fluoronaphthalen-1-yl)-2-((tetrahydro-1H-pyrrolizin-7a(5H)-yl)methoxy)pyrido[4,3-d]pyrimidin-4-yl)-3-oxa-1,8-diazaspiro[4.5]decan-2-one] |
| 0.02 | 0.021 | 283 | 1.29 | 0.038 | 0.043 | 317 | 0.051 | 0.233 | CCc1cccc2cccc(-c3ncc4c(NCc5cccnc5N)nc(OCC56CCCN5CCC6)nc4c3F)c12 [Example 204, N-((2-aminopyridin-3-yl)methyl)-7-(8-ethylnaphthalen-1-yl)-8-fluoro-2-((hexahydro-1H-pyrrolizin-7a-yl)methoxy)pyrido[4,3-d]pyrimidin-4-amine] |
| 6.4 | 14.6 | 6250 | 6.83 | 6.12 | 3.87 | 3780 | 5.75 | 3.84 | CS(=O)(=O)C1CCCCCN(c2nc(OCC34CCCN3CCC4)nc3c(F)c(-c4cccc5cccc(F)c45)ncc23)C1 (stereo not drawn) [Example 251, 8-fluoro-7-(8-fluoronaphthalen-1-yl)-2-((hexahydro-1H-pyrrolizin-7a-yl)methoxy)-4-(3-(methylsulfonyl)azocan-1-yl)pyrido[4,3-d]pyrimidine] |
| 7.45 | 11.3 | 14000 | 16.1 | 8.14 | 7.53 | 8810 | 6.24 | 8.55 | Fc1c(-c2cccc3cccc(F)c23)ncc2c(NCCCn3ccnn3)nc(OCC34CCCN3CCC4)nc12 [Example 118, N-(3-(1H-1,2,3-triazol-1-yl)propyl)-8-fluoro-7-(8-fluoronaphthalen-1-yl)-2-((tetrahydro-1H-pyrrolizin-7a(5H)-yl)methoxy)pyrido[4,3-d]pyrimidin-4-amine] |
| 0.183 | 0.115 | 1850 | 4.51 | 0.24 | 0.146 | 1250 | 0.368 | 1.39 | Fc1c(-c2cccc3cccc(F)c23)ncc2c(NCc3c[nH]c4ncccc34)nc(OCC34CCCN3CCC4)nc12 [Example 94, N-((1H-pyrrolo[2,3-b]pyridin-3-yl)methyl)-8-fluoro-7-(8-fluoronaphthalen-1-yl)-2-((tetrahydro-1H-pyrrolizin-7a(5H)-yl)methoxy)pyrido[4,3-d]pyrimidin-4-amine] |
| 9.88 | 7.57 | 19500 | 64.4 | 8.99 | 5.16 | 11600 | 11.3 | 14 | O=C1NCC2(CCN(c3nc(OCC45CCCN4CCC5)nc4c(F)c(-c5cccc6cccc(F)c56)ncc34)CC2)N1 [Example 217, 8-(8-fluoro-7-(8-fluoronaphthalen-1-yl)-2-((tetrahydro-1H-pyrrolizin-7a(5H)-yl)methoxy)pyrido[4,3-d]pyrimidin-4-yl)-1,3,8-triazaspiro[4.5]decan-2-one] |
| 6.88 | 6.53 | 84800 | 65.9 | 14.8 | 2.84 | ≥ 100000 | 23.2 | 28.9 | Fc1c(-c2cccc3cccc(F)c23)ncc2c(Nc3ccc4cn[nH]c4c3)nc(OCC34CCCN3CCC4)nc12 [Example 218, 8-fluoro-7-(8-fluoronaphthalen-1-yl)-N-(1H-indazol-6-yl)-2-((tetrahydro-1H-pyrrolizin-7a(5H)-yl)methoxy)pyrido[4,3-d]pyrimidin-4-amine] |
| 2.19 | 2.58 | 11100 | 25.1 | 2.68 | 1.7 | 8700 | 1.72 | 4.22 | O=S1(=O)CC(CNc2nc(OCC34CCCN3CCC4)nc3c(F)c(-c4cccc5cccc(F)c45)ncc23)C1 [Example 127, 3-(((8-fluoro-7-(8-fluoronaphthalen-1-yl)-2-((tetrahydro-1H-pyrrolizin-7a(5H)-yl)methoxy)pyrido[4,3-d]pyrimidin-4-yl)amino)methyl)thietane 1,1-dioxide] |
| 0.077 | 0.096 | 82 | 0.043 | 0.071 | 0.048 | 60 | 0.065 | 0.074 | Cc1cc2[nH]ncc2c(-c2ncc3c(N4CCCC(C)(O)C4)nc(OCC45CCCN4CCC5)nc3c2F)c1C1CC1 (stereo not drawn) [Example 144, 1-(7-(5-cyclopropyl-6-methyl-1H-indazol-4-yl)-8-fluoro-2-((tetrahydro-1H-pyrrolizin-7a(5H)-yl)methoxy)pyrido[4,3-d]pyrimidin-4-yl)-3-methylpiperidin-3-ol] |
| 4.25 | 4.11 | 4940 | 10.2 | 4.28 | 7.43 | 4340 | 7.39 | 3.99 | Fc1c(-c2cccc3cccc(Cl)c23)ncc2c(N3CCCC(n4cccn4)C3)nc(OCC34CCCN3CCC4)nc12 (stereo not drawn) [Example 109, 4-(3-(1H-pyrazol-1-yl)piperidin-1-yl)-7-(8-chloronaphthalen-1-yl)-8-fluoro-2-((tetrahydro-1H-pyrrolizin-7a(5H)-yl)methoxy)pyrido[4,3-d]pyrimidine] |
| 9.57 | 4.14 | 18400 | 49 | 11.5 | 8.79 | 13400 | 7.8 | 12.8 | O=S1(=O)CC[C@H](CNc2nc(OCC34CCCN3CCC4)nc3c(F)c(-c4cccc5cccc(F)c45)ncc23)N1 [Example 128, (R)-3-(((8-fluoro-7-(8-fluoronaphthalen-1-yl)-2-((tetrahydro-1H-pyrrolizin-7a(5H)-yl)methoxy)pyrido[4,3-d]pyrimidin-4-yl)amino)methyl)isothiazolidine 1,1-dioxide] |
| 11.6 | 15.6 | 27600 | 31.9 | 14.4 | 18 | 17200 | 14.6 | 15.7 | Fc1c(-c2cccc3cccc(F)c23)ncc2c(NCCCn3cnnn3)nc(OCC34CCCN3CCC4)nc12 [Example 119, N-(3-(1H-tetrazol-1-yl)propyl)-8-fluoro-7-(8-fluoronaphthalen-1-yl)-2-((tetrahydro-1H-pyrrolizin-7a(5H)-yl)methoxy)pyrido[4,3-d]pyrimidin-4-amine] |
| 0.192 | 0.348 | 412 | 0.175 | 0.227 | 0.189 | 297 | 0.272 | 0.333 | O=C1CC2(CCCN(c3nc(OCC45CCCN4CCC5)nc4c(F)c(-c5cccc6cccc(F)c56)ncc34)C2)N1 (stereo not drawn) [Example 97, 6-(8-fluoro-7-(8-fluoronaphthalen-1-yl)-2-((hexahydro-1H-pyrrolizin-7a-yl)methoxy)pyrido[4,3-d]pyrimidin-4-yl)-1,6-diazaspiro[3.5]nonan-2-one] |
| 1.19 | 2.23 | 1860 | 0.746 | 0.961 | 1.49 | 925 | 0.921 | 0.956 | CC1(O)CCCN(c2nc(OCC34CCCN3CCC4)nc3c(F)c(-c4cccc5cccc(F)c45)ncc23)C1 (stereo not drawn) [Example 17, 1-(8-fluoro-7-(8-fluoronaphthalen-1-yl)-2-((hexahydro-1H-pyrrolizin-7a-yl)methoxy)pyrido[4,3-d]pyrimidin-4-yl)-3-methylpiperidin-3-ol] |
| 7.11 | 16 | 12200 | 14.2 | 9.48 | 12 | 12100 | 10.6 | 8.47 | OCC1CCCN(c2nc(OCC34CCCN3CCC4)nc3c(F)c(-c4cccc5cccc(F)c45)ncc23)C1 (stereo not drawn) [Example 113, (1-(8-fluoro-7-(8-fluoronaphthalen-1-yl)-2-((tetrahydro-1H-pyrrolizin-7a(5H)-yl)methoxy)pyrido[4,3-d]pyrimidin-4-yl)piperidin-3-yl)methanol] |
| 1.89 | 1.5 | 4940 | 15.5 | 2.09 | 1.83 | 4210 | 2.45 | 3.95 | Oc1nc(CCCNc2nc(OCC34CCCN3CCC4)nc3c(F)c(-c4cccc5cccc(Cl)c45)ncc23)n[nH]1 [Example 103, 3-(3-((7-(8-chloronaphthalen-1-yl)-8-fluoro-2-((tetrahydro-1H-pyrrolizin-7a(5H)-yl)methoxy)pyrido[4,3-d]pyrimidin-4-yl)amino)propyl)-1H-1,2,4-triazol-5-ol] |
